Experimental data published in patent publication US9840498B2, “Substituted quinazolin-4-one derivatives” (NOVARTIS AG, priority 2013, dated 2017).

Biological target: human phosphoinositide-3 kinase (PI3K) alpha (Homo sapiens (Human), UniProt P42336)
Assay: PI3K-mediated Akt 1/2 (S473) phosphorylation in Rat-1 cells overexpressing PI3K alpha
Type: cell-based, rat cells expressing human PI3K alpha
Conditions: cellular assay, p-AKT(Ser473), read-out: Cell PI3K alpha IC50
Method: 2.1 Phosphoinositide-3 kinase (PI3K)-Mediated Akt 1/2 (S473) Phosphorylation in Rat-1 Cells
Rat-1 cells stably overexpressing a myristoylated form of the catalytic subunit of human phosphoinositide-3 kinase (PI3K) alpha, beta or delta were plated in 384-well plates at a density of 7500 (PI3K alpha), 6200 (PI3K beta), or 4000 (PI3K delta) cells in 30 ul complete growth medium (Dulbecco's modified Eagle's medium (DMEM high glucose) supplemented with 10% (v/v) fetal bovine serum, 1% (v/v) MEM non essential amino acids, 10 mM HEPES, 2 mM L-glutamine, 10 μg/mL puromycin and 1% (v/v) Penicillin/Streptomycin) and were incubated at […]/5% CO2/95% humidity for 24 h. Compounds were diluted in 384-well compound plates (compound master plates), to obtain 8-point serial dilutions for 40 test compounds in 90% DMSO, as well as 4 reference compounds plus 16 high controls and 16 low (inhibited) controls. Predilution plates were prepared by dispensing pipetting 250 nl of compound solutions into 384-well polypropylen plates (daugther plates), using a Hummingwell nanoliter dispenser. Compounds were prediluted by the addition of 49.75 ul complete growth medium. 10 ul of prediluted compound solution were transferred to the cell plate using a 384-well pipettor, resulting in a final DMSO concentration of 0.11%. Cells were incubated for 1 h at […]/5% CO2/95% humidity. The supernatant was removed, the cells were lysed in 20 ul of lysis buffer for AlphaScreen® SureFire® detection.
For detection of p-AKT(Ser473), the SureFire® p-Akt 1/2 (Ser473) Assay Kit (PerkinElmer, U.S.A.) was used. 5 ul of cell lysate was transferred to 384-well low volume Proxiplates for detection using a 384-well pipettor. Addition of AlphaScreen® SureFire® reagents was done according to the manufacturer's protocol. First, 5 ul of reaction buffer plus activation buffer mix containing AlphaScreen® acceptor beads was added, the plate was sealed, and incubated on a plate shaker for 2 hours at room temperature. Second, 2 ul of dilution buffer containing AlphaScreen® donor beads was added, and the plate was incubated on plate shaker as above for a further 2 hours. The plate was read on an AlphaScreen® compatible plate reader, using standard AlphaScreen® settings. Alternatively, p-AKT(Ser473) was detected with the CisBio HTRF Assay Kit: As positive control, 0.9 mM of 1-(3-(trifluoromethyl)-4-(piperazin-1-yl)phenyl)-8-(6-methoxypyridin-3-yl)-3-methyl-1H-imidazo[4,5-c]quinolin-2(3H)-one maleic acid salt in 90% (v/v) DMSO was added to the compound master plate. For compound testing, the cells were seeded at a density of 4000 (Rat-1_PI3Kdelta), 8000 (Rat-1_PI3Kalpha), or 6500 (Rat-1_PI3Kbeta) cells in 30 ul complete growth medium into 384-well plates, with a plastic surface promoting the adhesion of cells and their growth (assay plates) and were grown at 37° C./5% CO2/90% humidity for 24 h. Some 10 ul of the compound predilutions from the daughter plate were then transferred to the cells. After treatment with compound for 1 h, medium was removed and cells were lysed by the addition of 20 ul lysis buffer supplemented with blocking buffer. Detection of p-AKT(Ser473) was performed with the HTRF pAKT (Ser473) assay kit according to the manufacturer's instructions using 16 ul of cell lysate in a total detection volume of 20 ul.

human phosphoinositide-3 kinase (PI3K) alpha, sequence (P42336 whole entry): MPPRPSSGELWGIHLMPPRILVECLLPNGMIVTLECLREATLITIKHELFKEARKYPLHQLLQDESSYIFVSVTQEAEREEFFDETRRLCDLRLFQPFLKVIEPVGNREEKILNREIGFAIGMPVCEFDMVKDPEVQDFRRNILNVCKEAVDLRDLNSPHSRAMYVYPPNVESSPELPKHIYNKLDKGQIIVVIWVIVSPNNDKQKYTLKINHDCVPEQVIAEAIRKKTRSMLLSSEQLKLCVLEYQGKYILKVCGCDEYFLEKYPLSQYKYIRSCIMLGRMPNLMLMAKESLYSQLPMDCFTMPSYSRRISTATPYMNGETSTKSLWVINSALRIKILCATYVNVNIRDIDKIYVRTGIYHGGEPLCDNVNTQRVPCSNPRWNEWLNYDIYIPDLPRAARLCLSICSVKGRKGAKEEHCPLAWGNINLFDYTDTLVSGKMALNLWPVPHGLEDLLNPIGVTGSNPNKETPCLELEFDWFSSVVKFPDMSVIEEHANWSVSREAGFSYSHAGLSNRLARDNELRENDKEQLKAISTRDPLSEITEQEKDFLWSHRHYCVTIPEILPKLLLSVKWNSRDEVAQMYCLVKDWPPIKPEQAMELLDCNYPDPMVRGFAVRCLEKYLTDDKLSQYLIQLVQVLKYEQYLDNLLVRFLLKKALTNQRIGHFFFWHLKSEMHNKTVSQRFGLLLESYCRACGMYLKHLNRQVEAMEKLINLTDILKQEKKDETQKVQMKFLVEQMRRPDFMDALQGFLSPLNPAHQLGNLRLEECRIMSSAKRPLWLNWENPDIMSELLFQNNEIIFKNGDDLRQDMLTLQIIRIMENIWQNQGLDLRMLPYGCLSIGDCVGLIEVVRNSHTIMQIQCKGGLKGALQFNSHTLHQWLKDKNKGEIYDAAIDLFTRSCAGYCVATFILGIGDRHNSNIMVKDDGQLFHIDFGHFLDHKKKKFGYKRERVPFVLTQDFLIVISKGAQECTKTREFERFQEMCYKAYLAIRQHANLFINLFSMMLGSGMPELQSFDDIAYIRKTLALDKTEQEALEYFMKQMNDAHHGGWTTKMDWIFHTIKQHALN
human phosphoinositide-3 kinase (PI3K) alpha, sequence (Q63787 whole entry partner): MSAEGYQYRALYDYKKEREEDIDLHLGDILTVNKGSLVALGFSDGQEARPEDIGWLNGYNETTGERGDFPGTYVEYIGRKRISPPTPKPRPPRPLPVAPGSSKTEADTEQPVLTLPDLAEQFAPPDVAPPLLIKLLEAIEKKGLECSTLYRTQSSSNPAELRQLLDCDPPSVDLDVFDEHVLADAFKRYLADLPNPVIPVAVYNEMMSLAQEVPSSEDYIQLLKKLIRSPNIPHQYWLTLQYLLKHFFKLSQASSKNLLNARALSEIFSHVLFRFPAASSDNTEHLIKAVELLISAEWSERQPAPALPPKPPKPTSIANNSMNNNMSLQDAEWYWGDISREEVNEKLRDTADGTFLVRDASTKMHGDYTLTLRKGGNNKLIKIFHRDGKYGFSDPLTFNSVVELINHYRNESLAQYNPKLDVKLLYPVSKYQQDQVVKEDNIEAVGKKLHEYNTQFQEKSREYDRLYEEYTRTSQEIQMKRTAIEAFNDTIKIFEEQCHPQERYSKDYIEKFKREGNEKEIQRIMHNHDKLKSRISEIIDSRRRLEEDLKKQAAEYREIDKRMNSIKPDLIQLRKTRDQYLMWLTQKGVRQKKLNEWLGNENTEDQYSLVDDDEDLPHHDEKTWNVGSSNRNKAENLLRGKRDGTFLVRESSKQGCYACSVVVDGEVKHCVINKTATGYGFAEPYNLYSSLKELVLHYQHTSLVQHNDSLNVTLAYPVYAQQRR

First: COc1ncc(-c2cccc3nc([C@@H]4C[C@H](O)CN4c4nc(N)nc(C)c4C#N)n(-c4ccccc4)c(=O)c23)cn1 [Example 22, 2-Amino-4-((2S,4S)-4-hydroxy-2-(5-(2-methoxypyrimidin-5-yl)-4-oxo-3-phenyl-3,4-dihydroquinazolin-2-yl)pyrrolidin-1-yl)-6-methylpyrimidine-5-carbonitrile]
Second: COc1ccc(-c2cccc3nc([C@@H]4C[C@H](O)CN4c4nc(N)nc(C)c4C#N)n(-c4ccccc4)c(=O)c23)cn1 [Example 27, 2-Amino-4-((2S,4S)-4-hydroxy-2-(5-(6-methoxypyridin-3-yl)-4-oxo-3-phenyl-3,4-dihydroquinazolin-2-yl)pyrrolidin-1-yl)-6-methylpyrimidine-5-carbonitrile]
The IC50 of the first is higher: over 10 µM for the first, 1.3 µM for the second.

Compared with `Cc1nc(N)nc(N2C[C@@H](O)C[C@H]2c2nc3cccc(-c4cccnc4)c3c(=O)n2-c2ccccc2)c1C#N` [Example 24, 2-Amino-4-((2S,4S)-4-hydroxy-2-(4-oxo-3-phenyl-5-(pyridin-3-yl)-3,4-dihydroquinazolin-2-yl)pyrrolidin-1-yl)-6-methylpyrimidine-5-carbonitrile], `Cc1nc(N)nc(N2C[C@@H](O)C[C@H]2c2nc3cccc(-c4cncnc4)c3c(=O)n2-c2ccccc2)c1C#N` [Example 26, 2-Amino-4-((2S,4S)-4-hydroxy-2-(4-oxo-3-phenyl-5-(pyrimidin-5-yl)-3,4-dihydroquinazolin-2-yl)pyrrolidin-1-yl)-6-methylpyrimidine-5-carbonitrile] is higher in IC50: 5 µM for the first, over 6.5 µM for the second.

Compared with `COc1cncc(-c2cccc3nc([C@@H]4C[C@H](O)CN4c4nc(N)nc(C)c4C#N)n(-c4ccccc4)c(=O)c23)c1` [Example 25, 2-Amino-4-((2S,4S)-4-hydroxy-2-(5-(5-methoxypyridin-3-yl)-4-oxo-3-phenyl-3,4-dihydroquinazolin-2-yl)pyrrolidin-1-yl)-6-methylpyrimidine-5-carbonitrile], `Cc1nc(N)nc(N2C[C@@H](O)C[C@H]2c2nc3cccc(-c4cnn(CCO)c4)c3c(=O)n2-c2ccccc2)c1C#N` [Example 28, 2-Amino-4-((2S,4S)-4-hydroxy-2-(5-(1-(2-hydroxyethyl)-1H-pyrazol-4-yl)-4-oxo-3-phenyl-3,4-dihydroquinazolin-2-yl)pyrrolidin-1-yl)-6-methylpyrimidine-5-carbonitrile] is higher in IC50: 1.9 µM for the first, over 10 µM for the second.

First: CCOc1ncc(-c2c(F)ccc3nc([C@@H]4C[C@H](O)CN4c4nc(N)nc(C)c4C#N)n(-c4ccccc4)c(=O)c23)cn1 [Example 29, 2-Amino-4-((2S,4S)-2-(5-(2-ethoxypyrimidin-5-yl)-6-fluoro-4-oxo-3-phenyl-3,4-dihydroquinazolin-2-yl)-4-hydroxypyrrolidin-1-yl)-6-methylpyrimidine-5-carbonitrile]
Second: Cc1nc(N)nc(N2C[C@@H](O)C[C@H]2c2nc3ccc(F)c(-c4cn(C)cn4)c3c(=O)n2-c2ccccc2)c1C#N [Example 31, 2-Amino-4-((2S,4S)-2-(6-fluoro-5-(1-methyl-1H-imidazol-4-yl)-4-oxo-3-phenyl-3,4-dihydroquinazolin-2-yl)-4-hydroxypyrrolidin-1-yl)-6-methylpyrimidine-5-carbonitrile]
The IC50 of the first is lower: 2.7 µM for the first, over 10 µM for the second. The first is the more potent here.

`Cc1nc(N)nc(N2C[C@@H](F)C[C@H]2c2nc3cccc(-c4cnn(C)c4)c3c(=O)n2-c2ccccc2)c1C#N` [Example 30, 2-Amino-4-((2S,4S)-4-fluoro-2-(5-(1-methyl-1H-pyrazol-4-yl)-4-oxo-3-phenyl-3,4-dihydroquinazolin-2-yl)pyrrolidin-1-yl)-6-methylpyrimidine-5-carbonitrile] and `CCOc1ncc(-c2cccc3nc([C@@H]4CCCN4c4nc(N)nc(C)c4C#N)n(-c4ccccc4)c(=O)c23)cn1` [Example 32, (S)-2-Amino-4-(2-(5-(2-ethoxypyrimidin-5-yl)-4-oxo-3-phenyl-3,4-dihydroquinazolin-2-yl)pyrrolidin-1-yl)-6-methylpyrimidine-5-carbonitrile] are within 1.5-fold of each other in IC50: 2.3 µM for the first, 2.4 µM for the second.

For `N#Cc1c(N)ncnc1N1CCC[C@H]1c1nc2cccc(C#CCO)c2c(=O)n1-c1ccccc1` [Example 33, (S)-4-Amino-6-(2-(5-(3-hydroxyprop-1-yn-1-yl)-4-oxo-3-phenyl-3,4-dihydroquinazolin-2-yl)pyrrolidin-1-yl)pyrimidine-5-carbonitrile], the IC50 was 6.5 µM.
